{"source": "patent US20080287418A1", "about": "“Extended Release Compositions and Methods for Their Manufacture” (ASTRAZENECA AB, priority 2007, published 2008)", "origin": "cited, not measured here", "data": [{"smiles": "OCCOCCN1CCN(C2=Nc3ccccc3Sc3ccccc32)CC1", "note": "[quetiapine, 11-[4-[2-(2-hydroxyethoxy)ethyl]-1-piperazinyl]dibenzo[b,f][1,4]thiazepine]", "values": [{"measurement": "Solubility in acid", "setting": "acid", "result": "soluble in acid"}, {"measurement": "Solubility in water", "setting": "water", "result": "slightly soluble in water"}]}]}
